“Also recorded” adds a separate entry of the source. Where two headings read alike, the source gives them in different places.
What was measured:
tps1Δ cells [1] = test: Growth rescue of tps1Δ strain on glucose (growth curves, 2% galactose medium); format: cell-based, S. cerevisiae
Procedure, shortened: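 tps1Δ yeast pregrown in Complete Synthetic medium with 2% galactose, washed, resuspended to OD 0.1; compounds added 10 min before glucose. Growth followed as OD595 every 30 min at 30 °C in at least three technical replicates.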

[2] = test system: A549 lung adenocarcinoma cells; test: A549 cell proliferation / growth inhibition; format: cell-based, human; conditions: 1 mM glucose; for Potency in reducing maximal growth rate of A549 cells: 6.25-50 μM
Procedure, shortened: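 A549 growth screened in RPMI with 1 mM glucose, compounds at 50 μM; cell number from counts of Hoechst-stained nuclei after 3 days. Growth curves also followed by IncuCyte phase-contrast confluency over 3–5 days (1000–1500 cells/well), DMSO ≤0.1%, ≥4 technical repeats.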

tps1Δ cells [3] = test: Glu6P and Fru1,6bisP levels after glucose addition to tps1Δ cells; format: cell-based, S. cerevisiae
Description: For measuring metabolite levels, cells were typically grown in Complete Synthetic medium. […] However, when comparing the effect of Warbicins on metabolite profiles of wild type and tps1Δ strains (FIG. 2f-k), cells were grown on 2% galactose. When grown to exponential phase, cells were harvested by centrifugation and washed twice with ice-cold 25 mM 2-(N-Morpholino)ethanesulfonic acid (MES) buffer, pH 6. Cells were suspended in Complete Synthetic medium without sugar at a concentration of 75 mg (wet weight)/mL followed by a temperature equilibration at 30° C. in a shaking water bath for 30 min. Depending on the experiment, a final concentration of 2.5 mM, 7.5 mM or 10 mM glucose was added to the cell suspension. Compounds were added 10 min prior to glucose addition. […]
Through endpoint measurement of the absorbance of NADH or NADPH at 340 nm, metabolite concentrations were calculated by applying Lambert's Law. Different metabolites were measured through the use of coupled enzymatic reactions. […] Depending on the measured metabolite, different co-factors and auxiliary enzymes were added. For measuring glucose-6-phosphate, 0.8 mg/ml NADP^+ was added to the assay buffer after which the baseline absorbance was measured. […] After stabilization of the OD340 spectra, ATP concentrations were measured by additionally adding 10 mM MgCl2 and 0.5 mM glucose to the assay buffer. […]

[4] = test system: U266 multiple myeloma cell line; test: U266 proliferation (cell count); format: cell-based, human; conditions: 25 μM, 4 days, RPMI with 1 mM glucose
Description: a. Cell count of the U266 multiple myeloma cell line after 4 days of growth on RPMI medium with 1 mM glucose. Cells were treated with either DMSO or 25 μM of WBC-A, -15C, -4C or -11C. Glucose consumption (b.) or lactate secretion (c.) rates are shown for U266 cells incubated in RPMI medium supplemented with 1 mM glucose for 8 h.

[5] = test system: KMS-12-PE multiple myeloma cells; test: Steady-state glucose consumption and lactate production in KMS-12-PE cells; format: cell-based, human; conditions: 25 μM, 1 mM glucose, 8 h
Description: (§1) The influence of WBC compounds on the steady-state glucose consumption rate was studied in the A549 adenocarcinoma and KMS-12-PE multiple myeloma cell lines. As such, different parameters needed to be optimized depending on whether cells were adherent or in suspension. As such, A549 cells were incubated at 125,000 cells/well in a 24-well plate in 300 μL RPMI medium for 8 h. For the KMS-12-PE cell line, 100,000 cells/well were incubated in 100 μL RPMI medium in a 96-well plate for 8 h. Medium was collected, spun down and HPLC-analyzed for measuring glucose and lactate levels. Metabolite levels were corrected for cell number, which always varied little over the span of 8 h. For every condition, at least 4 technical repeats were included.

tps1Δ cells [6] = test: Zero-trans glucose uptake in tps1Δ yeast cells; format: cell-based, S. cerevisiae; conditions: 2.5 mM glucose, tps1Δ cells
Description: Zero-trans uptake of radioactively labeled [U-^14C]glucose, [U-^14C]fructose or [U-^14C]galactose by S. cerevisiae cells was determined in accordance with previous studies^44,66. Cells were grown on different carbon sources depending on the experiment. For measuring glucose uptake activity in the tps1Δ and tps1Δ hxtA strains (FIG. 1b,c), cells were grown on YP medium containing 3% glycerol (measurement of 10s). Typically, for compound characterization and kinetic studies in wild type and tps1Δ strains, cells were (pre)grown on Complete Synthetic medium supplemented with 2% galactose (measurement of 10s). In the experiments on the influence of hexokinase activity on the sugar uptake rate, the measurement duration was shortened to 5s and cells were always grown on YP medium containing 3% glycerol and 2% ethanol. After harvesting, cells were washed twice with ice-cold 25 mM MES-buffer pH 6, and resuspended in their respective medium without sugar to a final concentration of 45 mg (wet weight)/mL. The amount of added tracer was estimated to give a response close to at least 1000 counts per min in order to adequately counter background noise. Cells were first preincubated for 10 min at 30° C. with the compound to acclimate the cells to the temperature and to allow adequate interaction with the compound prior to uptake. Next, hexose sugar was mixed with the cell suspension, which was then incubated for 5 or 10 s, depending on the experiment, after which the cells were rapidly filtered over a glass microfiber filter (Whatman GF/C) and washed three times with ice-cold dH2O. The loaded filter was transferred to a scintillation vial containing 3 mL liquid scintillation cocktail (Ultima-Flo M, Perkin Elmer) and counted using the Hidex 300 SL. Three blank measurements per strain were typically included to account for background signal, for which the cells were first quenched before adding the radioactive label.

[7] = test system: A549 lung adenocarcinoma cells; test: Steady-state glucose consumption and lactate production in A549 cells; format: cell-based, human; conditions: 25 μM, 1 mM glucose, 8 h
Description: as §1

[8] = test system: MCF10A breast epithelia cell line transformed with the H-RAS^V12 allele; test: MCF10A H-RAS^V12 growth and apoptosis (IncuCyte); format: cell-based, human; conditions: 25 μM
Description: For both adherent A549 and MCF10Δ H-RAS^V12 cell lines, growth curves were established using the IncuCyte® ZOOM technology. By collecting phase contrast images, the IncuCyte® software provides a calculated confluency percentage from which growth curves can be deducted.
Cells were seeded at a density of 1000-1500 cells/well in a Nunc-Edge™ 96-well plate (Thermo Fisher Scientific) and growth was typically measured over 3 to 5 days. For the measurement of apoptosis induction using the MCF10Δ H-RAS^V12 cell line, the IncuCyte® Caspase-3/7 green dye was added to the medium in the recommended concentration at the beginning of the growth curve experiment. Apoptosis was detected by taking fluorescent images by excitation at 488 nm followed by IncuCyte® software analysis. Cell growth of the KMS-12-PE multiple myeloma cell line, which grows in suspension, was measured by manual cell counting. Cells were initially seeded at a density of 10^4 cells/well and incubated for 4 days after which the cell number was counted. For all cell lines, the same medium used for pregrowth was also used for the growth curve experiment, albeit with different glucose concentrations depending on the experimental design. With compound administration, the final concentration of DMSO never exceeded 0.1%. Typically, at least four technical repeats were included per condition.

[9] = test system: A549 lung adenocarcinoma cells; test: 2-deoxyglucose uptake in A549 cells; format: cell-based, human; conditions: for Type of inhibition of 2-deoxyglucose uptake in A549 cells: Lineweaver-Burk plot analysis
Description: Zero-trans glucose uptake in A549 cells was approximated by measuring the uptake of [1,2-^3H]2-deoxyglucose. For this purpose, A549 cells were pregrown in RPMI medium containing 10 mM glucose in a 24-well plate to a cell density of around 100,000 cells/well. Prior to adding radioactive label, cells were gently washed twice in Krebs-Ringer-HEPES buffer (50 mM HEPES pH 7.4, 137 mM NaCl, 4.7 mM KCl, […], 1.3 mM MgSO4 and 0.1% w/v BSA) at 30° C. to remove any residual sugar. RPMI medium without sugar containing the compound intended for treatment, was added to the cells for 15 min at 37° C. to allow adequate interaction of the cells with the compound.
The uptake measurement was initiated by adding an equal volume of medium containing radiolabeled 2DG. After 3-4 min, medium was aspirated and cells were gently washed three times with ice-cold Krebs-Ringer-HEPES buffer. Cells were lysed by adding 200 μL of ice-cold 0.1 M NaOH solution and incubating the plate for 10 min at 37° C. Cell lysates were transferred to scintillation vials for subsequent scintillation counting. For blank measurements, cells were incubated with 50 μM Cytochalasin B prior to the uptake measurement.

[10] = Warbicin toxicity and tolerability in mice; format: in vivo, NMRI-nu mice; conditions: for Loss in body weight over 20 days: daily i.p. 5, 10 and 20 mg/kg, nude mice; for AST/ALT ratio vs vehicle: sera after 20 days, 5, 10, 20 mg/kg i.p.; for Blood glucose level vs vehicle: sera post mortem after 20 days, 5, 10, 20 mg/kg i.p.
Description: Warbicin in vivo toxicity and tolerability was examined by subjecting NMRI-nu mice to daily intraperitoneal injection of either WBC-A, WBC-15C, WBC-4C or WBC-11C. Compounds were dosed at either 5 mg/kg, 10 mg/kg or 20 mg/kg over a period of 20 days. Three mice were used per condition. To evaluate toxicity, change in body weight was registered daily. As a humane endpoint, mice that lost more than 20% of their original body weight were prematurely sacrificed. An optimal dissolve strategy was developed to administer WBC compounds by intraperitoneal injection. Due to their considerable hydrophobicity, compounds were dissolved in a sterilized 1×PBS, 5% DMSO and 5% Tween-80 solution. For WBC-A, -15C and -4C, this gives an initial clear solution that gradually changes over time into a homogenous suspension which can still be administered in a reproducible way. For WBC-11C it immediately results in a homogenous suspension.

Row | SMILES | Proliferation of U266 cell line [4] | Glucose consumption and lactate production in KMS-12-PE cells [5] | Glucose consumption and lactate production in A549 cells [7] | Potency in reducing maximal growth rate of A549 cells [2] | Proliferation of MCF10A H-RAS^V12 cell line on 1 mM glucose [8] | Type of inhibition of 2-deoxyglucose uptake in A549 cells [9] | Loss in body weight over 20 days [10] | AST/ALT ratio vs vehicle [10] | Blood glucose level vs vehicle [10] | further results
1 | Cc1nc(SCC(N)=O)c2c3c(sc2n1)CCCC3 [55C] |  |  |  |  |  |  |  |  |  | Rescue of the tps1Δ strain on 2.5 mM glucose at 100 μM (tps1Δ cells [1]; 100 μM compound, 2.5 mM glucose): No; Rescue of tps1Δ cells on 2.5 mM glucose (tps1Δ cells [1]; 100 μM, 2% galactose + 2.5 mM glucose): highly active; Selected from primary screen for growth inhibition of A549 cells at 50 μM ([2]; 50 μM compound): No; Glu6P and Fru1,6bisP hyperaccumulation after addition of 2.5 mM glucose (tps1Δ cells [3]): did not prevent hyperaccumulation of sugar phosphates
2 | Cc1nc(SCC(=O)c2ccc3c(c2)NC(=O)CO3)c2c(-c3cccs3)csc2n1 [WBC-11C] | inhibit proliferation | inhibited | inhibited | most | highest potency | uncompetitive | no significant loss in body weight; also recorded: No significant difference | No significant difference | No significant difference | IC50 (tps1Δ cells [6]): 44 µM; Minimal rescue concentration for growth of tps1Δ cells on 2.5 mM glucose (tps1Δ cells [1]; 2.5 mM glucose): 50 µM; Induction of apoptosis (caspase 3/7 dye) in MCF10A H-RAS^V12 cells ([8]; 1 mM glucose): strong induction of apoptosis; Ki ([9]; Cornish-Bowden plot analysis, printed K′, read-out: K′i, 2-deoxyglucose uptake in A549 cells): 7.53 µM; Body weight drop at 10 and 5 mg/kg around day 5 and 11 ([10]; daily i.p. 10 and 5 mg/kg): small transient drop; Toxic effects in organs at autopsy, 20 and 10 mg/kg ([10]; daily i.p. 20 and 10 mg/kg, not observed at lower concentrations): toxic effects were seen in the liver and other organs
3 | Cc1nc(NCC(=O)NCc2ccco2)c2c(-c3ccccc3)csc2n1 [WBC-4C] | inhibit proliferation | inhibited | inhibited | intermediate potency | highest potency | noncompetitive | no significant loss in body weight; also recorded: No significant difference | No significant difference | No significant difference | Ki ([9]; Dixon plot analysis, read-out: Ki (=K′i), 2-deoxyglucose uptake in A549 cells): 26.8 µM; Weight loss of one single mouse sacrificed at day 19 ([10]; daily i.p. 20 mg/kg): 20%; Other abnormalities at autopsy ([10]; daily i.p. 5, 10, 20 mg/kg, 20 days): No other abnormalities

From patent US20240252508A1, “Novel glucose uptake inhibitors for use in the treatment of cancer” (NOVELYEAST BV, priority 2021, published 2024)
